How the values were obtained:
primary cortical neurons [1] = assay: CRMP immunoblot after neurotoxin treatment of primary cortical neurons, with or without protease inhibitors; type: cell-based, rat; settings: for CRMP5 after neurotoxin / intact CRMP1 and CRMP4 after neurotoxin: NMDA 200 μM 6 hours, maitotoxin 3 nM 3 hours; for integrity of intact CRMP2 / appearance of 55 kDa BDP after neurotoxin: NMDA 200 μM, MTX, STS 0.5 μM, EDTA 5 mM; for STS-mediated generation of the 55 kDa CRMP2 BDP (effect of inhibitor): STS 0.5 μM challenge, primary cortical neurons; for formation of the 55 kDa CRMP2 BDP after NMDA treatment (effect of inhibitor pretreatment): pretreatment of primary cortical culture
Experimental: Primary cortical neurons from first post-natal day Sprague-Dawley rat brains were plated on poly-L-lysine coated culture plates (Erie Scientific, Portsmouth, N.H., U.S.A.). Cells were dissociated with trypsin and DNase I, re-suspended in 10% plasma-derived horse serum (PDHS) in Dulbecco's modified Eagle's medium (DMEM), and plated on poly-L-lysine treated 35 mm (density: 3.0×10^6 cells per well) plates. Cells were allowed to grow in an atmosphere of 10% CO2 at 37° C. for three days and then treated with 1 μM 4-amino-6-hydrazino-7-β-D-ribofuranosyl-7H-pyrrolo (2,3-d)-pyrimidine-5-carboxamide (ARC) for two days. The ARC was removed and fresh 10% PDHS was added in DMEM, after which the cells were grown for an additional 10-14 days.
Protein concentrations of cell or tissue lysates were determined via Bio-Rad DC Protein Assay (Bio-Rad, Hercules, Calif.). Protein balanced samples were prepared for sodium dodecyl sulfate-polyacrylamide gel electrophoresis (SDS-PAGE) in a two-fold loading buffer containing 0.25 M Tris (pH 6.8), 0.2 M DTT, 8% SDS, 0.02% bromophenol blue, and 20% glycerol in distilled water. Samples were heated for 90 seconds at 90° C. and centrifuged for 2 minutes. Twenty micrograms (20 μg) of protein per lane were routinely resolved by SDS-PAGE on Tris-glycine gels for 2 hours at 130V. Following electrophoresis, separated proteins were laterally transferred to polyvinylidene fluoride (PVDF) membranes in a transfer buffer containing 39 mM glycine and 48 mM Tris-HCl (pH 8.3) 5% methanol at a constant voltage of 20 V for 2 hours at ambient temperature in a semi-dry transfer unit (Bio-Rad) by the semi-dry method.
Rat CRMP5 antibody (targeting to residues 369-564, Chemicon, Temecula, Calif.) was dialyzed with PBS using Slide-A-Lyzer MINI Dialysis Units, (Pierce, 3.5MWCO, 69550, Rockford, Ill.). Then CRMP5 was biotinylated by using EZ-link, sulfo-NHS-LC-LC-biotin by following the manufacture's instructions. Membranes were blotted either with anti-CRMP-1, or -4 (targeting residues 499-511, Chemicon), biotinylated-anti-CRMP5 antibodies or anti-CRMP2 (C4G) or a C-terminal anti-CRMP2 antibody raised against a synthetic peptides of residues 551-559), and developed with biotin and avidin-conjugated alkaline phosphatase (this step was skipped in CRMP5 blotting) and nitroblue tetrazolium and 5-bromo-4-chloro-3-indolyl phosphate. Quantitative evaluation of protein levels was performed via computer-assisted densitometric scanning (NIH Image J V.1.6 software).

[2] = tested on: rat cerebrocortical cultures; assay: Synaptotagmin-1 fragmentation and vesicle organization in neurotoxin-challenged neuronal cultures; type: cell-based; settings: for organization of synaptotagmin-coupled vesicles: cerebrocortical neurons and cerebellar granule neurons; for fragmentation of 65 kDa synaptotagmin-1 protein (33-36 kDa N-terminal fragments): oncotic, apoptotic and excitotoxic challenge
Experimental: Cerebrocortical cells harvested from 1-day old Sprague-Dawley rat brains were plated on poly-L-lysine coated on 6-well culture plates (Erie Scientific, Portsmouth, N.H., USA) at a density of 4.36×10^5 cells/mL. Cultures were maintained in Dulbecco's modified Eagle's medium (DMEM) with 10% fetal bovine serum in a humidified incubator in an atmosphere of 10% CO2 at 37° C. After 5 days in culture, the media were changed to DMEM with 5% horse serum. Subsequent media changes were performed three times a week. Experiments were performed on days 10 to 11 in vitro when astroglia had formed a confluent monolayer beneath morphologically mature neurons.
Cerebrocortical cultures (12-day-old) from above were washed three times with serum-free MEM.
After electrotransfer, blotting membranes were blocked for 1 hour at ambient temperature in 5% non-fat milk in TBS and 0.05% […] (TBST), then incubated in primary monoclonal synaptotagmin-1 antibody (BD Cat# 610434) in TBST with 5% milk at 1/50 dilution as recommended by the manufacturer at 4° C. overnight, followed by three washes with TBST and a 2 hour incubation at ambient temperature with a secondary antibody linked to biotinylated secondary antibody (Amersham, Cat # RPN1177v1) followed by a 30 min incubation with strepavidin-conjugated alkaline phosphatase (calorimetric method). Colorimetric development was performed with a one-step BCIP NBT reagent (KPL, Cat # 50-81-08). Molecular weights of intact synaptotagmin-1 protein and their potential breakdown products (BDPs) were assessed by running along side rainbow colored molecular weight standards (Amersham, Cat # RPN800V).

primary cortical neurons [3] = assay: LDH release assay of NMDA induced neuronal cell injury; type: cell-based, rat; settings: for protection against NMDA induced neuronal cell injury (LDH release): time course, protection within 6 hours
Experimental: LDH release assays were performed to determine the role of calpain and caspase inhibition on NMDA induced neuronal cell injury, and to draw a link with CRMP2 degradation. The release of LDH, normally present in the cytoplasm of neurons, into the cell culture media can be used as a measure of dying cells.

calpain = target: T1, calpain (Rattus norvegicus, UniProt Q07009); assay: In vitro calpain digestion of naïve brain lysate (CRMP2 immunoblot); type: biochemical; settings: pretreatment of naïve lysate
T1 construct: purchased Calbiochem
T1 sequence (Q07009 20-700 limits assumed): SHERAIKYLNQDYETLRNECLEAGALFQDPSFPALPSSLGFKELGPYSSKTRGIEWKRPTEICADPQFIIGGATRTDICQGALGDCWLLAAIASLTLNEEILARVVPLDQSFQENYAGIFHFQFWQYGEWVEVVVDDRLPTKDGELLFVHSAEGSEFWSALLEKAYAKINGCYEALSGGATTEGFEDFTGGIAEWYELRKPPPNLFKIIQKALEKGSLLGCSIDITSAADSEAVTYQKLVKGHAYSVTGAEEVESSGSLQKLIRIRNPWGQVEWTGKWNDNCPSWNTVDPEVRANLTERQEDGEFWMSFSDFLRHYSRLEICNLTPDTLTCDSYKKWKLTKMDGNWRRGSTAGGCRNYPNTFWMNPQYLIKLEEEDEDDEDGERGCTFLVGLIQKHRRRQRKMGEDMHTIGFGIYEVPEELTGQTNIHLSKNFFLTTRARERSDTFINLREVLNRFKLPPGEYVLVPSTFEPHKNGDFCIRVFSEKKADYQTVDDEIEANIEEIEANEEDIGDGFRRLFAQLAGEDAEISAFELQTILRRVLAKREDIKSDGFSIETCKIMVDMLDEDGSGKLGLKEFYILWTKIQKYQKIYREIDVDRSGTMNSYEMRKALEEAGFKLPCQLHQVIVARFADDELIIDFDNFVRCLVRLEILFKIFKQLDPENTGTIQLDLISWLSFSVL
T1 sequence (Q64537 88-270 partner limits assumed): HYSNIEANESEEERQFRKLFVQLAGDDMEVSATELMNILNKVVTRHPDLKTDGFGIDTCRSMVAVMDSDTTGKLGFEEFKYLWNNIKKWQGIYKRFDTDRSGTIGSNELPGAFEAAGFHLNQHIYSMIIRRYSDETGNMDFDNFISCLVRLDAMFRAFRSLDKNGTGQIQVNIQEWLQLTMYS
Experimental: (§1) In vitro digestion of rat brain lysate (5 mg) was performed with the purified proteases human erythrocyte calpain-1, rat recombinant calpain-2 (Calbiochem, San Diego, Calif.) and recombinant human caspase-3 (Chemicon, Temecula, Calif.) in a buffer containing 100 mM Tris-HCl (pH 7.4) and 20 mM DTT. For calpain, 2 mM CaCl2 was also added, and then incubated at room temperature for 30 minutes. For caspase-3, samples were incubated at 37° C. for four hours. Protease reactions were stopped by the addition of calpain inhibitor SJA6017 to a concentration of 30 μM (Senju Pharmaceuticals, Kobe, Japan) or pan-caspase inhibitor Z-VAD to a concentration of 20 μM and a protease inhibitor cocktail solution.
(§2) This example was to determine whether CRMP2 proteolysis was calpain mediated following TBI, similar to the proteolysis found in cell culture after neurotoxin treatment. […] The complete inhibition of calpain and caspase activity was confirmed by parallel monitoring of calpain and caspase associated αII-spectrin degradation. […] Therefore, calpain produced the 55 kDa CRMP-2 BDP, while caspase-3 was ruled out.

[4] = target: T2, recombinant human caspase-3 (Homo sapiens, UniProt P42574); assay: In vitro caspase-3 digestion of naïve brain lysate (CRMP2 immunoblot); type: biochemical
T2 construct: purchased Chemicon
T2 sequence (P42574 29-175 limits assumed): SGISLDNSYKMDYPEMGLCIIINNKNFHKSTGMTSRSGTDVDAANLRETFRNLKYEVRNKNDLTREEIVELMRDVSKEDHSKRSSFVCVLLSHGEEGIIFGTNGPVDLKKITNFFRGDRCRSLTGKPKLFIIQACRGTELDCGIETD
T2 sequence (P42574 176-277 limits assumed): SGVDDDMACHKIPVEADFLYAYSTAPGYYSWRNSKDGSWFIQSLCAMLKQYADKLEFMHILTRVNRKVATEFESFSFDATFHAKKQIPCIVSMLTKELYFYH
Experimental: as §1, §2

| Compound | CRMP5 after neurotoxin (primary cortical neurons [1]) | intact CRMP1 and CRMP4 after neurotoxin (primary cortical neurons [1]) | organization of synaptotagmin-coupled vesicles [2] | fragmentation of 65 kDa synaptotagmin-1 protein (33-36 kDa N-terminal fragments) [2] | integrity of intact CRMP2 / appearance of 55 kDa BDP after neurotoxin (primary cortical neurons [1]) | STS-mediated generation of the 55 kDa CRMP2 BDP (effect of inhibitor) (primary cortical neurons [1]) | formation of the 55 kDa CRMP2 BDP after NMDA treatment (effect of inhibitor pretreatment) (primary cortical neurons [1]) | protection against NMDA induced neuronal cell injury (LDH release) (primary cortical neurons [3]; NMDA treatment) | other results |
| --- | --- | --- | --- | --- | --- | --- | --- | --- | --- |
| C=CC[C@H](C)[C@H](C)C[C@@H](O)[C@H](O)[C@@H]1CC[C@@]2(C)O[C@@]3(C)C[C@@]4(C)O[C@H]5/C=C\C[C@H]6O[C@H]7C[C@H]8O[C@H]9C[C@@]%10(C)O[C@@](C)([C@@H]%11CC[C@H]%12O[C@@]%13(C)C[C@H]%14O[C@@]%15(C)C[C@H]%16O[C@@]%17(C)C[C@@H](O)[C@H]([C@@H]%18O[C@H]%19[C@H](O)[C@@H](O)[C@H](C[C@H](O)C[C@@H](O)[C@@H]%20O[C@H]%21[C@H](O)[C@@H](O)[C@H]([C@@H]%22O[C@@H]%23[C@H](O)[C@H]%24O[C@H]%25C[C@H]%26O[C@@H](C[C@H](O)[C@@H](O)[C@H]%27O[C@H]%28[C@H](O)[C@H]%29O[C@H]%30C[C@H]%31O[C@H]%32[C@@H](O)[C@@H](O)[C@H]([C@H](C)[C@H](O)[C@H](C)CC[C@H](OS(=O)(=O)O)[C@H](O)[C@H](C)C[C@@H](O)C(=C)/C(C)=C/CO)O[C@@H]%32[C@H](O)C[C@]%31(C)O[C@@H]%30C[C@]%29(C)O[C@@H]%28C[C@H]%27O)[C@H](OS(=O)(=O)O)[C@H](O)[C@@H]%26O[C@@H]%25C[C@@H]%24O[C@H]%23[C@H](O)[C@H]%22O)O[C@H]%21C[C@H]%20O)O[C@H]%19C[C@H]%18O)O[C@@H]%17[C@H](O)[C@]%16(C)O[C@@H]%15CC[C@]%14(C)O[C@@H]%13C[C@@H]%12O%11)[C@H](O)C[C@@H]%10O[C@]9(C)CC[C@]8(C)O[C@]7(C)C[C@@H]6O[C@@H]5C[C@@H]4O[C@@H]3C[C@@H]2O1 [MTX, maitotoxin] | no remarkable change | Decrease of CRMP1 and CRMP4 | extensive disorganization | fragmented by calpain into N-terminal fragments | – | – | – | – | – |
| CN[C@H](CC(=O)O)C(=O)O [NMDA, N-Methyl-D-Asparate] | no remarkable change | Decrease of CRMP1 and CRMP4 | extensive disorganization | fragmented by calpain into N-terminal fragments | marked reduction | – | – | – | time of appearance of the 55 kDa CRMP2 BDP (primary cortical neurons [1]; NMDA 200 μM time course): ≤ 3 h; neuron death (LDH release) (primary cortical neurons [3]; NMDA treatment, peaking at 24 hours): induced significant neuron death after a 3 hour induction |
| CC(C)C[C@@H](C=O)NC(=O)[C@@H](NS(=O)(=O)c1ccc(F)cc1)C(C)C [SJA6017] | – | – | – | – | – | effectively blocked | prevented the formation of the 55 kDa CRMP2 BDP | significant protection within 6 hours | formation of the 55 kDa CRMP-2 BDP by calpain in naïve brain lysate (effect of inhibitor) (calpain): blocked formation of the 55 kDa CRMP-2 BDP; protection of neurons from excitotoxic injury after 12 hours (primary cortical neurons [3]; preincubation with inhibitor, after 12 hours): did not effectively protect |
| CN[C@@H]1C[C@H]2O[C@@](C)([C@@H]1OC)n1c3ccccc3c3c4c(c5c6ccccc6n2c5c31)C(=O)NC4 [STS, staurosporine] | – | – | – | fragmented by calpain into N-terminal fragments | rapidly degraded to the 55 kDa BDP | – | – | – | – |
| Z-VAD | – | – | – | – | – | offered no protection | not | no protection | 66 kDa intact CRMP2 band after caspase-3 treatment with inhibitor [4]: did completely disappear |

From patent US8557526B2, “Synaptotagmin and collapsin response mediator protein as biomarkers for traumatic brain injury” (University of Florida Research Foundation, Inc., priority 2007, dated 2013)
